# Test results published in US12662476B2, “Herbicidal thiazole compounds” (SYNGENTA CROP PROTECTION AG, priority 2019, dated 2026).
# Tests used:
# Format in all cases: in vivo
# [1] = test system: Amaranthus retoflexus (AMARE); assay: Pre-emergence herbicidal glasshouse test; conditions: sprayed after one day cultivation, 250 g/ha, evaluated after 13 days, five-point scale
# Method: (§1) Seeds of a variety of test species are sown in standard soil in pots Amaranthus retoflexus (AMARE), Echinochloa crus-galli (ECHCG), Setaria faberi (SETFA)). After cultivation for one day (pre-emergence) or after 8 days cultivation (post-emergence) under controlled conditions in a glasshouse (at 24/16° C., day/night; 14 hours light; 65% humidity), the plants are sprayed with an aqueous spray solution derived from the formulation of the technical active ingredient in acetone/water (50:50) solution containing 0.5% Tween™ 20 (polyoxyethylene sorbitan monolaurate, CAS RN 9005-64-5). Compounds are applied at 250 g/ha unless otherwise stated. The test plants are then grown in a glasshouse under controlled conditions in a glasshouse (at 24/16° C., day/night; 14 hours light; 65% humidity) and watered twice daily. After 13 days for pre- and post-emergence, the test is evaluated for the percentage damage caused to the plant. The biological activities are shown in the following table on a five-point scale (5=81-100%; 4=61-80%; 3=41-60%; 2=21-40%; 1=0-20%).
# [2] = test system: Echinochloa crus-galli (ECHCG); assay: Pre-emergence herbicidal glasshouse test; conditions: sprayed after one day cultivation, 250 g/ha, evaluated after 13 days, five-point scale
# Method: as §1
# [3] = test system: Setaria faberi (SETFA); assay: Pre-emergence herbicidal glasshouse test; conditions: sprayed after one day cultivation, 250 g/ha, evaluated after 13 days, five-point scale
# Method: as §1
# [4] = test system: Amaranthus retoflexus (AMARE); assay: Post-emergence herbicidal glasshouse test; conditions: sprayed after 8 days cultivation, 250 g/ha, evaluated after 13 days, five-point scale
# Method: as §1
# [5] = test system: Echinochloa crus-galli (ECHCG); assay: Post-emergence herbicidal glasshouse test; conditions: sprayed after 8 days cultivation, 250 g/ha, evaluated after 13 days, five-point scale
# Method: as §1
# [6] = test system: Setaria faberi (SETFA); assay: Post-emergence herbicidal glasshouse test; conditions: sprayed after 8 days cultivation, 250 g/ha, evaluated after 13 days, five-point scale
# Method: as §1
compound,measurement,setting,value
FC(F)c1cc(-c2c(Br)cccc2Oc2nc(C(F)F)c(Cl)s2)on1 [Compound 1.030],"percentage damage caused to the plant, AMARE",[1],1 (1=0-20%)
same,"percentage damage caused to the plant, ECHCG",[2],1 (1=0-20%)
same,"percentage damage caused to the plant, SETFA",[3],1 (1=0-20%)
same,"percentage damage caused to the plant, AMARE",[4],1 (1=0-20%)
same,"percentage damage caused to the plant, ECHCG",[5],1 (1=0-20%)
same,"percentage damage caused to the plant, SETFA",[6],1 (1=0-20%)
"Fc1cccc(Sc2ncc(Cl)s2)c1-c1cc(C(F)F)no1 [Compound 1.031, 5-[2-(5-chlorothiazol-2-yl)sulfanyl-6-fluoro-phenyl]-3-(difluoromethyl)isoxazole]","percentage damage caused to the plant, AMARE",[1],3 (3=41-60%)
same,"percentage damage caused to the plant, ECHCG",[2],2 (2=21-40%)
same,"percentage damage caused to the plant, SETFA",[3],2 (2=21-40%)
same,"percentage damage caused to the plant, AMARE",[4],4 (4=61-80%)
same,"percentage damage caused to the plant, ECHCG",[5],2 (2=21-40%)
same,"percentage damage caused to the plant, SETFA",[6],3 (3=41-60%)
Fc1cccc(Oc2nc(Cl)c(Cl)s2)c1-c1cc(C(F)F)no1 [Compound 1.029],"percentage damage caused to the plant, AMARE",[1],5 (5=81-100%)
same,"percentage damage caused to the plant, ECHCG",[2],1 (1=0-20%)
same,"percentage damage caused to the plant, SETFA",[3],2 (2=21-40%)
same,"percentage damage caused to the plant, AMARE",[4],5 (5=81-100%)
same,"percentage damage caused to the plant, ECHCG",[5],1 (1=0-20%)
same,"percentage damage caused to the plant, SETFA",[6],2 (2=21-40%)
FC(F)c1cc(-c2c(Br)cccc2Oc2nc(Cl)c(Cl)s2)on1 [Compound 1.028],"percentage damage caused to the plant, AMARE",[1],2 (2=21-40%)
same,"percentage damage caused to the plant, ECHCG",[2],4 (4=61-80%)
same,"percentage damage caused to the plant, SETFA",[3],4 (4=61-80%)
same,"percentage damage caused to the plant, AMARE",[4],4 (4=61-80%)
same,"percentage damage caused to the plant, ECHCG",[5],4 (4=61-80%)
same,"percentage damage caused to the plant, SETFA",[6],4 (4=61-80%)
"Fc1cccc(Oc2ncc(C(F)F)s2)c1-c1cc(C(F)F)no1 [Compound 1.001, 3-(difluoromethyl)-5-[2-[5-(difluoromethyl)thiazol-2-yl]oxy-6-fluoro-phenyl]isoxazole]","percentage damage caused to the plant, AMARE",[1],5 (5=81-100%)
same,"percentage damage caused to the plant, ECHCG",[2],5 (5=81-100%)
same,"percentage damage caused to the plant, SETFA",[3],5 (5=81-100%)
same,"percentage damage caused to the plant, AMARE",[4],5 (5=81-100%)
same,"percentage damage caused to the plant, ECHCG",[5],5 (5=81-100%)
same,"percentage damage caused to the plant, SETFA",[6],5 (5=81-100%)
Cc1cccc(-c2cc(C(F)F)no2)c1Oc1ncc(Cl)s1 [Compound 1.011],"percentage damage caused to the plant, AMARE",[1],4 (4=61-80%)
same,"percentage damage caused to the plant, ECHCG",[2],4 (4=61-80%)
same,"percentage damage caused to the plant, SETFA",[3],1 (1=0-20%)
same,"percentage damage caused to the plant, AMARE",[4],2 (2=21-40%)
same,"percentage damage caused to the plant, ECHCG",[5],3 (3=41-60%)
same,"percentage damage caused to the plant, SETFA",[6],3 (3=41-60%)
"Cc1cnc(Oc2cccc(F)c2-c2cc(C(F)F)no2)s1 [Compound 1.005, 3-(difluoromethyl)-5-[2-fluoro-6-(5-methylthiazol-2-yl)oxy-phenyl]isoxazole]","percentage damage caused to the plant, AMARE",[1],5 (5=81-100%)
same,"percentage damage caused to the plant, ECHCG",[2],3 (3=41-60%)
same,"percentage damage caused to the plant, SETFA",[3],4 (4=61-80%)
same,"percentage damage caused to the plant, AMARE",[4],4 (4=61-80%)
same,"percentage damage caused to the plant, ECHCG",[5],4 (4=61-80%)
same,"percentage damage caused to the plant, SETFA",[6],4 (4=61-80%)
FC(F)c1cc(-c2c(Cl)cccc2Oc2ncc(C(F)F)s2)on1 [Compound 1.019],"percentage damage caused to the plant, AMARE",[1],2 (2=21-40%)
same,"percentage damage caused to the plant, ECHCG",[2],5 (5=81-100%)
same,"percentage damage caused to the plant, SETFA",[3],5 (5=81-100%)
same,"percentage damage caused to the plant, AMARE",[4],4 (4=61-80%)
same,"percentage damage caused to the plant, ECHCG",[5],4 (4=61-80%)
same,"percentage damage caused to the plant, SETFA",[6],5 (5=81-100%)
FC(F)c1cc(-c2c(Cl)cccc2Oc2ncc(Br)s2)on1 [Compound 1.025],"percentage damage caused to the plant, AMARE",[1],5 (5=81-100%)
same,"percentage damage caused to the plant, ECHCG",[2],5 (5=81-100%)
same,"percentage damage caused to the plant, SETFA",[3],5 (5=81-100%)
same,"percentage damage caused to the plant, AMARE",[4],5 (5=81-100%)
same,"percentage damage caused to the plant, ECHCG",[5],5 (5=81-100%)
same,"percentage damage caused to the plant, SETFA",[6],5 (5=81-100%)
FC(F)c1cc(-c2c(Cl)cccc2Oc2nc(Cl)c(Cl)s2)on1 [Compound 1.032],"percentage damage caused to the plant, AMARE",[1],5 (5=81-100%)
same,"percentage damage caused to the plant, ECHCG",[2],1 (1=0-20%)
same,"percentage damage caused to the plant, SETFA",[3],1 (1=0-20%)
same,"percentage damage caused to the plant, AMARE",[4],5 (5=81-100%)
same,"percentage damage caused to the plant, ECHCG",[5],2 (2=21-40%)
same,"percentage damage caused to the plant, SETFA",[6],4 (4=61-80%)
Fc1cccc(-c2cc(C(F)F)no2)c1Oc1ncc(Cl)s1 [Compound 1.010],"percentage damage caused to the plant, AMARE",[1],5 (5=81-100%)
same,"percentage damage caused to the plant, ECHCG",[2],4 (4=61-80%)
same,"percentage damage caused to the plant, SETFA",[3],4 (4=61-80%)
same,"percentage damage caused to the plant, AMARE",[4],4 (4=61-80%)
same,"percentage damage caused to the plant, ECHCG",[5],3 (3=41-60%)
same,"percentage damage caused to the plant, SETFA",[6],4 (4=61-80%)
